In ChEMBL document CHEMBL4138170, “Synthesis and biological evaluation of novel alkylated polyamine analogues as potential anticancer agents” (Eur J Med Chem, 2018):
Blank lines part the entries; values can stand above or below the compound they belong to. The source made the active and inactive calls. The rule behind the calls is not given here.

Legend:
[1] = test system: K562; assay: Antiproliferative activity against human K562 cells after 48 hrs by MTT assay; type: functional, cell-based; conditions: K562, 48 h
[2] = test system: HepG2; assay: Antiproliferative activity against human HepG2 cells after 48 hrs by MTT assay; type: functional, cell-based; conditions: HepG2, 48 h
[3] = test system: HCT-116; assay: Antiproliferative activity against human HCT116 cells after 48 hrs by MTT assay; type: functional, cell-based; conditions: HCT-116, 48 h
[4] = test system: SMMC-7721; assay: Antiproliferative activity against human SMMC7721 cells after 48 hrs by MTT assay; type: functional, cell-based; conditions: SMMC-7721, 48 h
[5] = test system: HT-29; assay: Antiproliferative activity against human HT-29 cells after 48 hrs by MTT assay; type: functional, cell-based; conditions: HT-29, 48 h
[6] = test system: CT26; assay: Antiproliferative activity against mouse CT26 cells after 48 hrs by MTT assay; type: functional, cell-based; conditions: CT26, 48 h
[7] = test system: MDA-MB-231; assay: Antiproliferative activity against human MDA-MB-231 cells after 48 hrs by MTT assay; type: functional, cell-based; conditions: MDA-MB-231, 48 h
[8] = test system: MCF7; assay: Antiproliferative activity against human MCF7 cells after 48 hrs by MTT assay; type: functional, cell-based; conditions: MCF7, 48 h
[9] = test system: H22; assay: Antiproliferative activity against mouse H22 cells after 48 hrs by MTT assay; type: functional, cell-based; conditions: H22, 48 h
[10] = Stability of the compound after 24 hrs by 1H NMR spectroscopic method; type: physicochemical
[11] = Stability of the compound after 48 hrs by 1H NMR spectroscopic method; type: physicochemical
[12] = test system: H22; assay: Antitumor activity against mouse H22 cells implanted in Swiss mouse assessed as tumor growth inhibition at 0.75 mg/kg/day, iv administered via tail vein for 7 days relative to control; type: functional; conditions: 168 h, read-out: TGI
[13] = test system: Mus musculus; assay: Toxicity in Swiss mouse implanted with mouse H22 cells assessed as effect on body weight at 0.75 mg/kg/day, iv administered via tail vein for 7 days; type: organism-based; conditions: in vivo, 168 h
[14] = test system: Mus musculus; assay: Toxicity in Swiss mouse implanted with mouse H22 cells assessed as effect on quality of life at 0.75 mg/kg/day, iv administered via tail vein for 7 days; type: organism-based; conditions: in vivo, 168 h
[15] = test system: Mus musculus; assay: Toxicity in Swiss mouse implanted with mouse H22 cells assessed as effect on heart weight at 0.75 mg/kg/day, iv administered via tail vein for 7 days; type: organism-based; conditions: in vivo, 168 h
[16] = test system: Mus musculus; assay: Toxicity in Swiss mouse xenografted with mouse H22 cells assessed as effect on liver weight at 0.75 mg/kg/day, iv administered via tail vein for 7 days; type: organism-based; conditions: in vivo, 168 h
[17] = test system: HepG2; assay: Inhibition of cell migration in human HepG2 cells at 2.5 to 7.5 uM incubated for 24 to 48 hrs by cell wound scratch assay; type: functional, cell-based
[18] = test system: SMMC-7721; assay: Inhibition of cell migration in human SMMC7721 cells at 2.5 to 7.5 uM incubated for 24 to 48 hrs by cell wound scratch assay; type: functional, cell-based
[19] = test system: HepG2; assay: Downregulation of MMP9 protein expression in human HepG2 cells after 24 to 48 hrs by Western blot analysis; type: functional, cell-based
[20] = test system: SMMC-7721; assay: Downregulation of MMP9 protein expression in human SMMC7721 cells after 24 to 48 hrs by Western blot analysis; type: functional, cell-based
[21] = test system: HepG2; assay: Downregulation of beta-catenin protein expression in human HepG2 cells after 24 to 48 hrs by Western blot analysis; type: functional, cell-based
[22] = test system: SMMC-7721; assay: Downregulation of beta-catenin protein expression in human SMMC7721 cells after 24 to 48 hrs by Western blot analysis; type: functional, cell-based
[23] = test system: H22; assay: Antitumor activity against mouse H22 cells implanted in Swiss mouse assessed as inhibition of lung metastasis at 0.75 mg/kg/day, iv administered via tail vein for 7 days relative to control; type: functional; conditions: 168 h
[24] = test system: HepG2; assay: Antiproliferative activity against human HepG2 cells after 48 hrs in presence of antioxidant NAC by MTT assay; type: functional, cell-based
[25] = test system: CT26; assay: Antimetastatic activity against mouse CT26 cells implanted in BALB/c mouse assessed as reduction in lung metastatic nodules at 0.75 mg/kg, iv administered via tail vein for 9 days; type: functional, organism-based
[26] = test system: HepG2; assay: Induction of ROS generation in human HepG2 cells after 24 hrs by H2DCFDA staining-based HCS analysis; type: functional, cell-based
[27] = test system: SMMC-7721; assay: Induction of ROS generation in human SMMC7721 cells after 24 hrs by H2DCFDA staining-based HCS analysis; type: functional, cell-based
[28] = test system: HepG2; assay: Induction of ROS generation in human HepG2 cells at 2.5 to 10 uM after 24 hrs by H2DCFDA staining-based flow cytometry; type: functional, cell-based
[29] = test system: SMMC-7721; assay: Induction of ROS generation in human SMMC7721 cells at 2.5 to 10 uM after 24 hrs by H2DCFDA staining-based flow cytometry; type: functional, cell-based
[30] = test system: HepG2; assay: Induction of ROS generation in human HepG2 cells at 10 uM after 24 hrs in presence of antioxidant NAC by H2DCFDA staining-based flow cytometry; type: functional, cell-based
[31] = test system: SMMC-7721; assay: Induction of ROS generation in human SMMC7721 cells at 10 uM after 24 hrs in presence of antioxidant NAC by H2DCFDA staining-based flow cytometry; type: functional, cell-based
[32] = test system: HepG2; assay: Induction of autophagy in human HepG2 cells up to 10 uM after 48 hrs by MDC staining-based flow cytometry; type: functional, cell-based
[33] = test system: SMMC-7721; assay: Induction of autophagy in human SMMC7721 cells up to 10 uM after 48 hrs by MDC staining-based flow cytometry; type: functional, cell-based
[34] = test system: HepG2; assay: Induction of autophagy in human HepG2 cells assessed as increase in LC3-2 levels after 24 to 48 hrs by Western blot analysis; type: functional, cell-based
[35] = test system: SMMC-7721; assay: Induction of autophagy in human SMMC7721 cells assessed as increase in LC3-2 levels after 24 to 48 hrs by Western blot analysis; type: functional, cell-based
[36] = test system: HepG2; assay: Induction of autophagy in human HepG2 cells assessed as increase in Beclin 1 levels at 2.5 to 7.5 um after 24 to 48 hrs by Western blot analysis; type: functional, cell-based
[37] = test system: SMMC-7721; assay: Induction of autophagy in human SMMC7721 cells assessed as increase in Beclin 1 levels at 2.5 to 7.5 um after 24 to 48 hrs by Western blot analysis; type: functional, cell-based
[38] = test system: HepG2; assay: Induction of autophagy in human HepG2 cells assessed as upregulation of ATG5 expression level up to 10 uM after 24 to 48 hrs by Western blot analysis; type: functional, cell-based
[39] = test system: SMMC-7721; assay: Induction of autophagy in human SMMC7721 cells assessed as upregulation of ATG5 expression level up to 10 uM after 24 to 48 hrs by Western blot analysis; type: functional, cell-based
[40] = test system: HepG2; assay: Induction of autophagy in human HepG2 cells assessed as upregulation of ATG7 expression level up to 10 uM after 24 to 48 hrs by Western blot analysis; type: functional, cell-based
[41] = test system: SMMC-7721; assay: Induction of autophagy in human SMMC7721 cells assessed as upregulation of ATG7 expression level up to 10 uM after 24 to 48 hrs by Western blot analysis; type: functional, cell-based
[42] = test system: HepG2; assay: Induction of autophagy in human HepG2 cells assessed as downregulation of p62 expression level up to 10 uM after 24 to 48 hrs by Western blot analysis; type: functional, cell-based
[43] = test system: SMMC-7721; assay: Induction of autophagy in human SMMC7721 cells assessed as downregulation of p62 expression level up to 10 uM after 24 to 48 hrs by Western blot analysis; type: functional, cell-based
[44] = test system: HepG2; assay: Induction of autophagy in human HepG2 cells up to 10 uM after 48 hrs in presence of antioxidant NAC by MDC staining-based flow cytometry; type: functional, cell-based
[45] = test system: SMMC-7721; assay: Induction of autophagy in human SMMC7721 cells up to 10 uM after 48 hrs in presence of antioxidant NAC by MDC staining-based flow cytometry; type: functional, cell-based
[46] = test system: HepG2; assay: Induction of autophagy in human HepG2 cells assessed as increase in LC3-2 levels in presence of antioxidant NAC by Western blot analysis; type: functional, cell-based
[47] = test system: SMMC-7721; assay: Induction of autophagy in human SMMC7721 cells assessed as increase in LC3-2 levels in presence of antioxidant NAC by Western blot analysis; type: functional, cell-based
[48] = test system: HepG2; assay: Antimigratory activity in human HepG2 cells incubated for 24 to 48 hrs in presence of autophagy inhibitor 3-MA by cell wound scratch assay; type: functional, cell-based
[49] = test system: Mus musculus; assay: Toxicity in Swiss mouse xenografted with mouse H22 cells assessed as effect on spleen weight at 0.75 mg/kg/day, iv administered via tail vein for 7 days; type: organism-based; conditions: in vivo, 168 h
[50] = test system: Mus musculus; assay: Toxicity in Swiss mouse xenografted with mouse H22 cells assessed as effect on lung weight at 0.75 mg/kg/day, iv administered via tail vein for 7 days; type: organism-based; conditions: in vivo, 168 h
[51] = test system: Mus musculus; assay: Toxicity in Swiss mouse xenografted with mouse H22 cells assessed as effect on kidney weight at 0.75 mg/kg/day, iv administered via tail vein for 7 days; type: organism-based; conditions: in vivo, 168 h
[52] = test system: SMMC-7721; assay: Antiproliferative activity against human SMMC7721 cells after 48 hrs in presence of antioxidant NAC by MTT assay; type: functional, cell-based
[53] = test system: HepG2; assay: Induction of autophagy in human HepG2 cells assessed as decrease in p62 levels in presence of antioxidant NAC by Western blot analysis; type: functional, cell-based
[54] = test system: SMMC-7721; assay: Induction of autophagy in human SMMC7721 cells assessed as decrease in p62 levels in presence of antioxidant NAC by Western blot analysis; type: functional, cell-based
[55] = test system: H22; assay: Antitumor activity against mouse H22 cells implanted in Swiss mouse assessed as tumor growth inhibition at 5 mg/kg/day, iv administered via tail vein for 7 days relative to control; type: functional; conditions: 168 h, read-out: TGI
[56] = test system: H22; assay: Antitumor activity against mouse H22 cells implanted in Swiss mouse assessed as inhibition of lung metastasis at 5 mg/kg/day, iv administered via tail vein for 7 days relative to control; type: functional; conditions: 168 h

Structure (SMILES): CN(C)CCN1C(=O)c2cccc3cc(N)cc(c23)C1=O [AMONAFIDE]
IC50 [1]: 10.1 µM | IC50 [3]: 6.86 µM | inhibition in vivo at 5 mg/kg/day [55]: 45.1% | inhibition in vivo at 5 mg/kg/day [56]: 41.2%

Structure (SMILES): CCNCCCNCCCCNCCCN1C(=O)c2cccc3cccc(c23)C1=O
IC50 [1]: 14.8 µM | IC50 [2]: 5.22 µM | IC50 [3]: 5.94 µM | IC50 [4]: 11 µM

Compounds with a lower IC50 [1], results first:

IC50 [1]: 4.67 µM | IC50 [2]: 6.34 µM | IC50 [3]: 5.28 µM | IC50 [4]: 5.13 µM | IC50 [5]: 8.18 µM | IC50 [6]: 9.04 µM | IC50 [7]: 5.14 µM | IC50 [8]: 7.47 µM | Stability [10]: Stable | Stability [11]: Stable
Structure (SMILES): Cl.Cl.Cl.O=C1c2cccc3cccc(c23)C(=O)N1CCCNCCCNCCCNC1CC1
IC50 [9]: 7.49 µM | inhibition in vivo at 0.75 mg/kg/day [12]: 68.3% | Activity [13]: Non-Toxic | Activity [14]: Non-Toxic | Activity [15]: Non-Toxic | Activity [16]: Non-Toxic | inhibition [17]: Active | inhibition [18]: Active | Activity [19]: Dose-dependent effect | Activity [20]: Dose-dependent effect | Activity [21]: Dose-dependent effect | Activity [22]: Dose-dependent effect | inhibition in vivo at 0.75 mg/kg/day [23]: 54.4% | Activity [24]: inactive | inhibition [25]: Active | Activity [26]: Dose-dependent effect | Activity [27]: Dose-dependent effect | Activity [28]: Active | Activity [29]: Active | Activity [30]: inactive | Activity [31]: inactive | Activity [32]: Active | Activity [33]: Active | Activity [34]: Dose-dependent effect | Activity [35]: Dose-dependent effect | Activity [36]: Active | Activity [37]: Active | Activity [38]: Active | Activity [39]: Active | Activity [40]: Active | Activity [41]: Active | Activity [42]: Active | Activity [43]: Active | Activity [44]: inactive | Activity [45]: inactive | Activity [46]: inactive | Activity [47]: inactive | Activity [48]: Active | Activity [49]: Non-Toxic | Activity [50]: Non-Toxic | Activity [51]: Non-Toxic | Activity [52]: inactive | Activity [53]: inactive | Activity [54]: inactive

IC50 [1]: 8.09 µM | IC50 [2]: 6.59 µM | IC50 [3]: 7.21 µM | IC50 [4]: 6.38 µM
Structure (SMILES): O=C1c2cccc3cccc(c23)C(=O)N1CCCNCCCCNCCCNC1CC1

IC50 [1]: 6.08 µM | IC50 [2]: 6.77 µM | IC50 [3]: 6.73 µM | IC50 [4]: 7.71 µM
Structure (SMILES): CCNCCCNCCCNCCCN1C(=O)c2cccc3cccc(c23)C1=O
